Test results from patent US20130280755A1, “THERAPEUTIC METHODS FOR SOLID DELIVERY” (Fred Hutchinson Cancer Research Center, priority 2010, published 2013).

Tests used:
lymphoma tumor = test: Doxorubicin delivered to a lymphoma tumor with a needle array; excised tumor slices imaged by fluorescence and brightfield microscopy; type: in vivo
From the text: Doxorubicin was delivered to a lymphoma tumor using a needle array of the method. The tumor was then excised and sectioned. […] Regions of doxorubicin fluorescence and cell death are localized to a zone within the tumor slice, reflecting spatially constrained doxorubicin delivery.

mouse tumor = test: Mouse tumor injected with doxorubicin and control; fluorescent imaging of the apoptosis signal; type: in vivo; conditions: FIG. 14; excitation 640 nm, emission 720 nm of the dye; versus control injection
Experimental: FIG. 14 depicts the use of various indicator dyes according to the method, to monitor spatially restricted delivery of compounds and resulting localized effects on regions of a tumor. A mouse tumor was injected with 1. doxorubicin; and 2. a control. Panel A illustrates excitation at 640 nm and emission at 800 nm of the dye. Panel B illustrates the doxorubicin signal (3.) observed after excitation at 500 nm and emission at 600 nm of doxorubicin. Panel C illustrates an apoptosis signal (4.) observed after excitation at 640 nm and emission at 720 nm of the dye.

[1] = test system: Intracranial medulloblastoma model (conditional Patchedl null) mice; test: Survival of intracranial medulloblastoma model mice; type: in vivo, mouse; conditions: FIG. 13; 20 mg/kg daily; monitored for 50 days; versus vehicle only
Experimental: The results of the in vivo experiment depicted in FIG. 12 predicted that Shh antagonists would have a positive effect on a mouse model of cancer. Intracranial medulloblastoma model (conditional Patchedl null) mice used in this experiment develop medulloblastoma with an early onset and 100% penetrance. Accordingly, mice were injected daily with 20 mg/kg of either A) vehicle plus IPI-926 (n=12); or B) vehicle only (n=11). The mice were monitored for 50 days for survival, and the results depicted in FIG. 13.

Structure (SMILES)	cell death in tumor slice, relative to doxorubicin fluorescence (lymphoma tumor; FIG. 8, one tumor slice, needle array delivery)	cell death across tumor depths (lymphoma tumor; FIG. 9, three cross-sectional slices from different depths)	apoptosis signal (mouse tumor)	survival [1]
COc1cccc2c1C(=O)c1c(O)c3c(c(O)c1C2=O)C[C@@](O)(C(=O)CO)C[C@@H]3O[C@H]1C[C@H](N)[C@H](O)[C@H](C)O1 [Doxorubicin]	doxorubicin fluorescence overlaps with the region of dead cells	Cell death was observed in a localized area across the three tumor depths	apoptosis overlaps with the region that received doxorubicin	–
CC1=C2C[C@H]3[C@@H](CC[C@@H]4C[C@H](NS(C)(=O)=O)CC[C@@]43C)[C@@H]2CC[C@@]2(C1)O[C@@H]1C[C@H](C)CN[C@H]1[C@H]2C [IPI-926]	–	–	–	significantly increased survival
